# Source: paper PMC10999543, “Identification of kinase modulators as host-directed therapeutics against intracellular methicillin-resistant Staphylococcus aureus” (Frontiers in Cellular and Infection Microbiology, 2024)
# Read-outs that look alike come from different tables or passages of the source.
# Key:
# intracellular MRSA = format: cell-based, Staphylococcus aureus; details: for %GFP+ rep 1 / z-scoreMRSA+ rep 1: replicate 1; for %GFP+ rep 2 / z-scoreMRSA+ rep 2: replicate 2; for %GFP+ rep 3 / z-scoreMRSA+ rep 3: replicate 3; for z-scoreMRSA+ mean: mean of 3 replicates
# Protocol: (§1) The cells were resuspended in cell culture medium without antibiotics, seeded with 10,000 cells/well into Costar flat-bottom 96-well plates (Corning, Amsterdam, the Netherlands), and were incubated overnight at 37°C/5% CO2. The next day, the bacteria were centrifuged at ≥1800 g for 15 min and resuspended in cold PBS + 5 mM ethylenediaminetetraacetic acid (EDTA). The number of CFUs present in the bacterial suspension was estimated from the optical density at 600 nm (OD600) by assuming 8x10^8 CFUs to be present in a bacterial suspension with OD600 = 1, based on prior titrations. The bacterial suspension was diluted in cell culture medium without antibiotics and added to the cells. Accuracy of the multiplicity of infection (MOI) was validated by plating serial dilutions of the MRSA inoculums on Difco TS agar plates (BD Biosciences). The calculated mean MOI throughout all experiments was 6.8 ± 4.6 (mean ± SD). Infected cells were centrifuged for 3 min at 150 g and incubated for 1 hour at 37°C/5% CO2. Next, the cells were incubated with fresh cell culture medium supplemented with 30 µg/ml gentamicin sulphate (Lonza BioWhittaker, Basel, Switzerland) for 15 min at 37°C/5% CO2 to kill residual extracellular bacteria. Infected cells were incubated overnight at 37°C/5% CO2 in cell culture medium in the presence of kinase inhibitors and 5 µg/ml gentamicin sulphate-containing medium to prevent the growth of extracellular bacteria. The solvent of the compounds, DMSO, was used at equal % v/v as a negative control. For the screen, each compound was tested in triplicate, on separate cell culture plates, resulting in triplicate values for each kinase inhibitor.
# (§2) HeLa cells were harvested by trypsinization and fixed with 1% paraformaldehyde. Samples were measured on a FACSLyric with HTS extension (BD Biosciences). Flow cytometry data were analysed using FlowJo version 10 (TreeStar, Ashland, OR, USA). HeLa cells positive for GFP were gated to calculate the percentage of MRSA-infected cells. The cell count was used as surrogate readout of cell viability.
# To identify potential “hit” compounds, the flow cytometry data were used to calculate standard z-scores using z = (x-μ)/σ – zneg, where x is total event count or the percent of GFP-positive cells from a single well, μ is the mean from wells of the plate, σ is the standard deviation of the plate and zneg is the mean z-score of the negative control of the plate (i.e., DMSO) ([Korbee et al., 2018]). To minimize the possibility that the presence of extreme values on a plate affected the z-scores, raw values that deviated two-fold from the negative controls were excluded when calculating plate means and standard deviations as used in the aforementioned formula. Compounds were considered a “hit” when z-scoreMRSA+ ≤ -2 and z-scoreHeLa ≥ -3 for cell count. In cases where compounds were screened twice, the average values were used to select hit compounds.
# HeLa cells = assay: Compound screen by flow cytometry: HeLa cell count as surrogate readout of cell viability (z-scoreHeLa); format: cell-based, human; details: for cell count rep 1 / z-scoreHeLa rep 1: replicate 1; for cell count rep 2 / z-scoreHeLa rep 2: replicate 2; for cell count rep 3 / z-scoreHeLa rep 3: replicate 3; for z-scoreHeLa mean: mean of 3 replicates
# Protocol: as §1, §2
# To minimize the possibility that the presence of extreme values on a plate affected the z-scores, raw values that deviated two-fold from the negative controls were excluded when calculating plate means and standard deviations as used in the aforementioned formula. Compounds were considered a “hit” when z-scoreMRSA+ ≤ -2 and z-scoreHeLa ≥ -3 for cell count. In cases where compounds were screened twice, the average values were used to select hit compounds.
# [1] = PKIS compound screen raw data, MRSA-infected HeLa cells
# [2] = Yes/No: effect without cell death
# [3] = compound screen, MRSA-infected HeLa cells
# [4] = PKIS compound screen raw data, HeLa cell count
# [5] = compound screen, HeLa cell count
# [6] = PKIS compound screen, MRSA-infected HeLa cells
# [7] = PKIS compound screen, Yes/No call
# [8] = PKIS compound screen, Yes/No call (effect without cell death)
# [9] = PKIS compound screen, Yes/No call on z-scoreMRSA+
# [10] = PKIS compounds raw data, MRSA-infected HeLa cells
# [11] = PKIS compound screen, HeLa cell count
# [12] = PKIS compound screen, Yes/No call on z-scoreHeLa
# [13] = PKIS compounds raw data, HeLa cell count
smiles,measurement,setting,value
O=C(NCCNc1ccnc(Nc2ccc(F)cc2)n1)Nc1ccccc1F [GSK1379880A],%GFP+ rep 1,intracellular MRSA; [1],25.7%
same,%GFP+ rep 2,intracellular MRSA; [1],21.6%
same,%GFP+ rep 3,intracellular MRSA; [1],22.7%
same,effect,intracellular MRSA; Yes/No call from z-scoreMRSA+,No
same,hit,intracellular MRSA; [2],No
same,z-scoreMRSA+ mean,intracellular MRSA; [3],0.00131
same,z-scoreMRSA+ rep 1,intracellular MRSA; [3],0.10
same,z-scoreMRSA+ rep 2,intracellular MRSA; [3],-0.25
same,z-scoreMRSA+ rep 3,intracellular MRSA; [3],0.15
same,cell count rep 1,HeLa cells; [4],4656
same,cell count rep 2,HeLa cells; [4],4642
same,cell count rep 3,HeLa cells; [4],6039
same,cell death,HeLa cells; Yes/No call from z-scoreHeLa,No
same,z-scoreHeLa mean,HeLa cells; [5],0.33
same,z-scoreHeLa rep 1,HeLa cells; [5],0.22
same,z-scoreHeLa rep 2,HeLa cells; [5],0.26
same,z-scoreHeLa rep 3,HeLa cells; [5],0.51
O=C(c1ccc(-c2cc(-c3c[nH]nc3-c3ccccn3)ccn2)cc1)N1CCCC1 [GW792479X],%GFP+ rep 1,intracellular MRSA; [1],20.2%
same,%GFP+ rep 2,intracellular MRSA; [1],21.2%
same,%GFP+ rep 3,intracellular MRSA; [1],21.9%
same,effect,intracellular MRSA; Yes/No call from z-scoreMRSA+,No
same,hit,intracellular MRSA; [2],No
same,z-scoreMRSA+ mean,intracellular MRSA; [3],0.35
same,z-scoreMRSA+ rep 1,intracellular MRSA; [3],0.38
same,z-scoreMRSA+ rep 2,intracellular MRSA; [3],0.49
same,z-scoreMRSA+ rep 3,intracellular MRSA; [3],0.18
same,cell count rep 1,HeLa cells; [4],29405
same,cell count rep 2,HeLa cells; [4],27776
same,cell count rep 3,HeLa cells; [4],26310
same,cell death,HeLa cells; Yes/No call from z-scoreHeLa,No
same,z-scoreHeLa mean,HeLa cells; [5],0.58
same,z-scoreHeLa rep 1,HeLa cells; [5],-0.13
same,z-scoreHeLa rep 2,HeLa cells; [5],0.43
same,z-scoreHeLa rep 3,HeLa cells; [5],1.44
Cc1nn2c(=O)cc(N3CCOCC3)nc2n1Cc1cccc(Cl)c1Cl [GSK2342769A],%GFP+ rep 1,intracellular MRSA; [1],10.7%
same,%GFP+ rep 2,intracellular MRSA; [1],10.7%
same,%GFP+ rep 3,intracellular MRSA; [1],15.0%
same,z-scoreMRSA+ mean,intracellular MRSA; [6],-2.08
same,z-scoreMRSA+ rep 1,intracellular MRSA; [6],-2.16
same,z-scoreMRSA+ rep 2,intracellular MRSA; [6],-2.38
same,z-scoreMRSA+ rep 3,intracellular MRSA; [6],-1.70
same,effect,intracellular MRSA; [7],No
same,hit,intracellular MRSA; [8],No and Yes
same,effect,intracellular MRSA; [9],Yes
same,z-scoreMRSA+ mean,intracellular MRSA; PKIS compound screen,-0.59
same,z-scoreMRSA+ rep 1,intracellular MRSA; PKIS compound screen,-0.67
same,z-scoreMRSA+ rep 2,intracellular MRSA; PKIS compound screen,-0.54
same,z-scoreMRSA+ rep 3,intracellular MRSA; PKIS compound screen,-0.55
same,%GFP+ rep 1,intracellular MRSA; [10],23.6%
same,%GFP+ rep 2,intracellular MRSA; [10],23.2%
same,%GFP+ rep 3,intracellular MRSA; [10],24.3%
same,cell count rep 1,HeLa cells; [4],31673
same,cell count rep 2,HeLa cells; [4],24146
same,cell count rep 3,HeLa cells; [4],21902
same,z-scoreHeLa mean,HeLa cells; [11],0.21
same,z-scoreHeLa rep 1,HeLa cells; [11],0.25
same,z-scoreHeLa rep 2,HeLa cells; [11],-0.19
same,z-scoreHeLa rep 3,HeLa cells; [11],0.58
same,cell death,HeLa cells; [7],No
same,cell death,HeLa cells; [12],No
same,z-scoreHeLa mean,HeLa cells; PKIS compound screen,-1.49
same,z-scoreHeLa rep 1,HeLa cells; PKIS compound screen,-1.68
same,z-scoreHeLa rep 2,HeLa cells; PKIS compound screen,-1.59
same,z-scoreHeLa rep 3,HeLa cells; PKIS compound screen,-1.19
same,cell count rep 1,HeLa cells; [13],3246
same,cell count rep 2,HeLa cells; [13],3614
same,cell count rep 3,HeLa cells; [13],3721
Cc1cccc(Cn2ccn3c(=O)cc(N4CCOCC4)nc23)c1 [GSK2297542A],%GFP+ rep 1,intracellular MRSA; [1],14.5%
same,%GFP+ rep 2,intracellular MRSA; [1],15.7%
same,%GFP+ rep 3,intracellular MRSA; [1],16.8%
same,z-scoreMRSA+ mean,intracellular MRSA; [6],-1.12
same,z-scoreMRSA+ rep 1,intracellular MRSA; [6],-1.14
same,z-scoreMRSA+ rep 2,intracellular MRSA; [6],-1.01
same,z-scoreMRSA+ rep 3,intracellular MRSA; [6],-1.21
same,effect,intracellular MRSA; [7],No
same,hit,intracellular MRSA; [8],No
same,effect,intracellular MRSA; [9],No
same,z-scoreMRSA+ mean,intracellular MRSA; PKIS compound screen,-0.44
same,z-scoreMRSA+ rep 1,intracellular MRSA; PKIS compound screen,-0.63
same,z-scoreMRSA+ rep 2,intracellular MRSA; PKIS compound screen,-0.16
same,z-scoreMRSA+ rep 3,intracellular MRSA; PKIS compound screen,-0.51
same,%GFP+ rep 1,intracellular MRSA; [10],23.8%
same,%GFP+ rep 2,intracellular MRSA; [10],25.2%
same,%GFP+ rep 3,intracellular MRSA; [10],24.5%
same,cell count rep 1,HeLa cells; [4],36714
same,cell count rep 2,HeLa cells; [4],30989
same,cell count rep 3,HeLa cells; [4],25952
same,z-scoreHeLa mean,HeLa cells; [11],1.15
same,z-scoreHeLa rep 1,HeLa cells; [11],1.10
same,z-scoreHeLa rep 2,HeLa cells; [11],0.98
same,z-scoreHeLa rep 3,HeLa cells; [11],1.37
same,cell death,HeLa cells; [7],No
same,cell death,HeLa cells; [12],No
same,z-scoreHeLa mean,HeLa cells; PKIS compound screen,0.56
same,z-scoreHeLa rep 1,HeLa cells; PKIS compound screen,0.45
same,z-scoreHeLa rep 2,HeLa cells; PKIS compound screen,0.33
same,z-scoreHeLa rep 3,HeLa cells; PKIS compound screen,0.91
same,cell count rep 1,HeLa cells; [13],6792
same,cell count rep 2,HeLa cells; [13],6500
same,cell count rep 3,HeLa cells; [13],7025
